Experimental data: PMC6856805, “Environmental Risk Assessment for the Active Pharmaceutical Ingredient Mycophenolic Acid in European Surface Waters” (Environmental Toxicology and Chemistry, 2019)
Several values for one entry are separate records, joined by “and”; a condition that tells them apart may be missing. Equal entries are not always repeated. Where two headings read alike, the source gives them in different places.

Legend:
Cyprinus carpio = tested on: Cyprinus carpio; set-up: method as in FASS 2018; details: OECD 203; ref FASS 2018; cited from earlier work
[1] = cited from earlier work; for k photo: ref Franquet‐Griell et al. (2017a)
[2] = set-up: method as in Franquet‐Griell et al. (2017a); details: ref Franquet‐Griell et al. (2017a), cited from earlier work
bacteria = assay: Derivation of provisional PNEC for antibiotic resistance (PNECABR)
Protocol: (§1) Antibiotic resistance risk is assessed through comparing PECs or MECs with a PNEC for formation or maintenance of antibiotic resistance (PNECABR). There is no universally accepted or regulatory algorithm for deriving a reliable PNECABR for bacteria, so for the time being this is approximated by applying assessment factors to bacterial minimal inhibitory concentrations (MICs). […] To be fully consistent with Bengtsson‐Palme and Larsson's (2016) approach to PNECABR derivation, the authors were contacted for help; they (J. Bengtsson‐Palme, Department of Infectious Diseases, Institute of Biomedicine, The Sahlgrenska Academy, University of Gothenberg, Gothenberg, Sweden, personal communication) state that “we only use species with 10 or more MIC observations, to avoid drawing conclusions from insufficient data […] . The only species with >10 observations in the Noto et al. (1969) paper is S[taphylococcus] aureus. In addition, when the MIC1% are selected, only one MIC [J.O.Straub's italics] value is selected per species (the lowest). Finally, the uncertainty factor for low sampling numbers is calculated as: (observed lowest MIC) × (number of tested species) ÷ 41.” Both these provisional PNECABR values were derived from the MPA MICs; the lower was selected and compared with the PECs and MECs.
Noto et al. (1969) tested the activity of MPA against various microorganisms, both fungi and some strains of bacteria. […] Higher inhibition of MPA was shown against pathogenic fungi of the genera Candida, Willia, Cryptococcus, Microsporum, Aspergillus, and Trichophyton, with MICs ranging from 3.9 to 500 mg/L (Noto et al. 1969).

[3] = Risk quotient PEC/PNEC or MEC/PNEC for STPs and surface freshwaters
Protocol: The potential risk for STPs and surface freshwater organisms was characterized by dividing the various PECs and MECs by the respective PNECs for MPA (Committee for Medicinal Products for Human Use 2015). Further risk assessments were performed for antibiotic resistance risk due to the described antibiotic activity of MPA, risk for environmental top predators, and also risk for humans through so‐called secondary poisoning from uptake of water or fish.

[4] = OECD test guideline 106 batch equilibrium adsorption test; type: physicochemical
Protocol: An OECD 106 phase I batch equilibrium adsorption test was performed by Toxi-Coop, Balatonfűred, Hungary (Halász-Laky 2018) with MPA and three soils plus two activated sludges of different characteristics (pHKCl, organic carbon (OC) content, plus for the soils sand fraction, silt fraction, clay fraction and USDA soil texture).
In short, the substrates were put in contact with MPA in aqueous 0.01 M CaCl2 solutions; the mixture was agitated for an appropriate time to reach equilibrium, in the case of MPA for 10 hours. The soil/sludge suspensions were then separated and the aqueous phase diluted twofold with the mobile HPLC phase, analysed by HPLC (Supplemental Information) and the amount of test item in the water phase calculated. The soil or sludge phases were extracted twice with acetonitrile/water/1 mg/mL NaOH solution (75/75/2, v/v/v); the extracts were diluted twofold with the mobile phase and then analysed by HPLC. Based on the analytics the mass balance could be established. The adsorption constant Kd was calculated as MPA concentration adsorbed to substrate divided by MPA concentration in aqueous CaCl2 solution; subsequently the Kd was normalised to the OC content to result in the KOC for the different substrates (Halász-Laky 2018).

[5] = set-up: method as in Wishart et al. 2018; Royal Pharmaceutical Society 2018; details: ref Wishart et al. 2018; Royal Pharmaceutical Society 2018; cited from earlier work
[6] = Antibiotic resistance risk quotient (PEC or MEC / PNECABR)
Protocol: as §1
This provisional PNECABR of 64 µg MPA/L can now be compared with the PECs for STPs and surface water and with the highest MECs available. […] For surface waters, all PECs including the highest, the Guadalquivir River low‐flow 99th %ile ePiE PEC, were below the PNECABR, and thus all risk quotients were ≤0.194, all refined PEC‐per‐country risk quotients were ≤0.0083, and all mean‐ and low‐flow median ePiE PEC risk quotients were ≤0.00033; finally, the highest MEC risk quotient was 0.0103. Both models and measurements imply that throughout Europe, even in the worst‐case scenario of a southern Mediterranean catchment with extremely low river flow in summer, no significant antibiotic resistance risk emerges for MPA.

Q: Which results are given for `COc1c(C)c2c(c(O)c1CC=C(C)CCC(=O)O)C(=O)OC2` [MPA, 6‐(1,3‐dihydro‐4‐hydroxy‐6‐methoxy‐7‐methyl‐3‐oxo‐5‐isobenzofuranyl)‐4‐methyl‐4‐hexenoic acid]?
A: acute fish 50% lethal concentration (LC50) (Cyprinus carpio): > 100 µg/mL; k photo ([1]; Solar Box artificial sunlight reactor): 0.004 min^–1; k photo ([1]; UV‐C irradiation): 0.0284 min^–1; UV-C photodegradation ([1]; pH 7, 20 mg/L MPA, ref Marín‐García (2015)): negligible photodegradation; biodegradation rate constant k biodeg ([2]; fifth cycle): 0.006 min^–1; biodegradation rate constant k biodeg ([2]; first cycle): 0.0017 min^–1; provisional PNECABR (rounded down, selected) (bacteria; lower of the 2 values): 64 µg MPA/L; first provisional PNECABR (bacteria; lowest MIC divided by 100, following Kümmerer and Henninger (2003)): 312.5 µg/L; second provisional PNECABR (bacteria; procedure of Bengtsson‐Palme and Larsson (2016), before rounding): 76 µg/L; highest PEC‐based risk quotient for STPs ([3]; PECSTP 8.83 µg/L / PNECSTP): 0.00128; highest MEC‐based risk quotient for STPs ([3]; STP effluent MEC 4.19 µg/L / PNECSTP): 0.0006; Risk quotient (PNECEC10), Average initial EMA EU PEC ([3]; STP removal 0%): 0.516; Risk quotient (PNECEC10), Average refined PEC per country ([3]; STP removal 12%): 0.141; Risk quotient (PNECEC10), Guadalquivir catchment low flow 99th percentile ePiE PEC ([3]; STP removal 12%): 21.41; Risk quotient (PNECEC10), Guadalquivir catchment low flow median ePiE PEC ([3]; STP removal 12%): <0.002; Risk quotient (PNECEC10), Guadalquivir catchment mean flow 1st percentile ePiE PEC ([3]; STP removal 12%): <0.002; Risk quotient (PNECEC10), Guadalquivir catchment mean flow 99th percentile ePiE PEC ([3]; STP removal 12%): 9.474; Risk quotient (PNECEC10), Guadalquivir catchment mean flow median ePiE PEC ([3]; STP removal 12%): <0.002; Risk quotient (PNECEC10), Highest refined PEC per country ([3]; STP removal 12%): 0.917; Risk quotient (PNECEC10), Lowest refined PEC per country ([3]; STP removal 12%): 0.003; Risk quotient (PNECEC10), Median refined PEC per country ([3]; STP removal 12%): 0.100; Risk quotient (PNECEC10), Ouse catchment low flow 99th percentile ePiE PEC ([3]; STP removal 12%): 4.967; Risk quotient (PNECEC10), Ouse catchment low flow median ePiE PEC ([3]; STP removal 12%): 0.336; Risk quotient (PNECEC10), Ouse catchment mean flow 1st percentile ePiE PEC ([3]; STP removal 12%): 0.002; Risk quotient (PNECEC10), Ouse catchment mean flow 99th percentile ePiE PEC ([3]; STP removal 12%): 1.226; Risk quotient (PNECEC10), Ouse catchment mean flow median ePiE PEC ([3]; STP removal 12%): 0.083; Risk quotient (PNECEC10), Rhine catchment low flow 99th percentile ePiE PEC ([3]; STP removal 12%): 4.597; Risk quotient (PNECEC10), Rhine catchment low flow median ePiE PEC ([3]; STP removal 12%): 0.036; Risk quotient (PNECEC10), Rhine catchment mean flow 1st percentile ePiE PEC ([3]; STP removal 12%): <0.002; Risk quotient (PNECEC10), Rhine catchment mean flow 99th percentile ePiE PEC ([3]; STP removal 12%): 1.157; Risk quotient (PNECEC10), Turia catchment low flow median ePiE PEC ([3]; STP removal 12%): 0.300; Risk quotient (PNECEC10), Turia catchment mean flow 1st percentile ePiE PEC ([3]; STP removal 12%): <0.002; Risk quotient (PNECEC10), Turia catchment mean flow 99th percentile ePiE PEC ([3]; STP removal 12%): 0.955; Risk quotient (PNECEC10), Turia catchment mean flow median ePiE PEC ([3]; STP removal 12%): 0.048; Risk quotient (PNECEC10), Average refined PEC per country ([3]; STP removal 43.6%): 0.100; Risk quotient (PNECEC10), Highest refined PEC per country ([3]; STP removal 43.6%): 0.660; Risk quotient (PNECEC10), Lowest refined PEC per country ([3]; STP removal 43.6%): 0.002; Risk quotient (PNECEC10), Median refined PEC per country ([3]; STP removal 43.6%): 0.072; Risk quotient (PNECEC10), Average refined PEC per country ([3]; STP removal 73.1%): 0.064; Risk quotient (PNECEC10), Highest refined PEC per country ([3]; STP removal 73.1%): 0.422; Risk quotient (PNECEC10), Lowest refined PEC per country ([3]; STP removal 73.1%): <0.002; Risk quotient (PNECEC10), Median refined PEC per country ([3]; STP removal 73.1%): 0.047; risk quotient for the PNECNOEC ([3]; initial use‐based Europe‐wide PEC): 2.27; Risk quotient (PNECEC10), Maximum MEC ([3]; surface water MECs): 1.131; Risk quotient (PNECEC10), Median MEC ([3]; surface water MECs): ~0.003; highest K OC ([4]; in one of the activated sludges): 37 L/kg; activated sludge K d ([4]; two activated sludges): 9.3 L/kg and 13 L/kg; fraction phase‐I‐metabolized to 6‐O‐desmethyl‐MPA [5]: less than 1%; terminal half‐life [5]: approximately 18 h; antibiotic resistance risk quotient, highest MEC [6]: 0.0103; antibiotic resistance risk quotients, all mean‐ and low‐flow median ePiE PEC [6]: ≤ 0.00033; antibiotic resistance risk quotients, all refined PEC‐per‐country [6]: ≤ 0.0083; antibiotic resistance risk quotient, STPs ([6]; highest STP effluent MEC 4.19 µg/L): 0.065; antibiotic resistance risk quotient, STPs ([6]; highest refined PECSTP 8.83 µg MPA/L): 0.138; antibiotic resistance risk quotients, surface waters, all PECs ([6]; including Guadalquivir low‐flow 99th %ile ePiE PEC): ≤ 0.194
